Activity calls are given as the source filed them.
What was measured:
[1] = molecular target: T1, 1-phosphatidylinositol 4,5-bisphosphate phosphodiesterase gamma-1 (Homo sapiens, UniProt P19174); experiment: Counterscreen for inhibitors of phospholipase C isozymes (PLC-B3): Fluorescence-based biochemical high throughput dose response assay to identify inhibitors of phospholipase C isozymes (PLC-gamma1).
T1 sequence (P19174 whole entry): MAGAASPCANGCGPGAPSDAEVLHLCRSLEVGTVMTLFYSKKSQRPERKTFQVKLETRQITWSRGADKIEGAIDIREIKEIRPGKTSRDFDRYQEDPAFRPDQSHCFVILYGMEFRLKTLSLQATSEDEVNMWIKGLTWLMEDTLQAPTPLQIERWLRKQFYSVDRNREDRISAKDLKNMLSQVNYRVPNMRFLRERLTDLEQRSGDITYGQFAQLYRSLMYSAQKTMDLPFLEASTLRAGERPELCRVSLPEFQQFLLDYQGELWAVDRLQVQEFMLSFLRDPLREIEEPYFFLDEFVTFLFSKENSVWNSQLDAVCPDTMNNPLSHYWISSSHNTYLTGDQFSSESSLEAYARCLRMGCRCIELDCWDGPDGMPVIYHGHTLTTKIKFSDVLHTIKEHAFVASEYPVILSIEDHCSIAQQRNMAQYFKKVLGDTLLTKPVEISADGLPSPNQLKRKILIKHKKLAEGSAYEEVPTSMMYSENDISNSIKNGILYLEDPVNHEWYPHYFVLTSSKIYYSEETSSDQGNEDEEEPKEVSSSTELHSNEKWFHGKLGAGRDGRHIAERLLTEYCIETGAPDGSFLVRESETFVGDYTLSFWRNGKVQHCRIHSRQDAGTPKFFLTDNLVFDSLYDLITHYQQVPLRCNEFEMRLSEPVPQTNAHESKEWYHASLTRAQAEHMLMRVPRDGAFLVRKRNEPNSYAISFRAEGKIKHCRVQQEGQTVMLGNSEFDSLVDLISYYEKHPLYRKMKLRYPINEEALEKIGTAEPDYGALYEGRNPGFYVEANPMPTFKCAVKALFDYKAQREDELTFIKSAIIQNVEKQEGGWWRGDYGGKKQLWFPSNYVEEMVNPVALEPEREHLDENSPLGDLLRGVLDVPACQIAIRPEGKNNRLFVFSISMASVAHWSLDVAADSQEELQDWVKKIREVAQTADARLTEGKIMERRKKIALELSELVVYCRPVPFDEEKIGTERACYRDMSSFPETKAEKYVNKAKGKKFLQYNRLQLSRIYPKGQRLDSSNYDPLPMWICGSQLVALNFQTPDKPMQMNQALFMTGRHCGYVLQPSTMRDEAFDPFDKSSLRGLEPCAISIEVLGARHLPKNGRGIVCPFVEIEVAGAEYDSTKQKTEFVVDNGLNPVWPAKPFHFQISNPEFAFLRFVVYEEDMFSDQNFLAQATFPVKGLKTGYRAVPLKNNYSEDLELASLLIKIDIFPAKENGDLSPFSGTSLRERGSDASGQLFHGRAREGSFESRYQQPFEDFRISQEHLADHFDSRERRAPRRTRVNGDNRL

[2] = molecular target: T2, 1-phosphatidylinositol 4,5-bisphosphate phosphodiesterase beta-3 (Homo sapiens, UniProt Q01970); experiment: Fluorescence-based biochemical high throughput dose response assay to identify inhibitors of phospholipase C isozymes (PLC-B3).
T2 sequence (Q01970 whole entry): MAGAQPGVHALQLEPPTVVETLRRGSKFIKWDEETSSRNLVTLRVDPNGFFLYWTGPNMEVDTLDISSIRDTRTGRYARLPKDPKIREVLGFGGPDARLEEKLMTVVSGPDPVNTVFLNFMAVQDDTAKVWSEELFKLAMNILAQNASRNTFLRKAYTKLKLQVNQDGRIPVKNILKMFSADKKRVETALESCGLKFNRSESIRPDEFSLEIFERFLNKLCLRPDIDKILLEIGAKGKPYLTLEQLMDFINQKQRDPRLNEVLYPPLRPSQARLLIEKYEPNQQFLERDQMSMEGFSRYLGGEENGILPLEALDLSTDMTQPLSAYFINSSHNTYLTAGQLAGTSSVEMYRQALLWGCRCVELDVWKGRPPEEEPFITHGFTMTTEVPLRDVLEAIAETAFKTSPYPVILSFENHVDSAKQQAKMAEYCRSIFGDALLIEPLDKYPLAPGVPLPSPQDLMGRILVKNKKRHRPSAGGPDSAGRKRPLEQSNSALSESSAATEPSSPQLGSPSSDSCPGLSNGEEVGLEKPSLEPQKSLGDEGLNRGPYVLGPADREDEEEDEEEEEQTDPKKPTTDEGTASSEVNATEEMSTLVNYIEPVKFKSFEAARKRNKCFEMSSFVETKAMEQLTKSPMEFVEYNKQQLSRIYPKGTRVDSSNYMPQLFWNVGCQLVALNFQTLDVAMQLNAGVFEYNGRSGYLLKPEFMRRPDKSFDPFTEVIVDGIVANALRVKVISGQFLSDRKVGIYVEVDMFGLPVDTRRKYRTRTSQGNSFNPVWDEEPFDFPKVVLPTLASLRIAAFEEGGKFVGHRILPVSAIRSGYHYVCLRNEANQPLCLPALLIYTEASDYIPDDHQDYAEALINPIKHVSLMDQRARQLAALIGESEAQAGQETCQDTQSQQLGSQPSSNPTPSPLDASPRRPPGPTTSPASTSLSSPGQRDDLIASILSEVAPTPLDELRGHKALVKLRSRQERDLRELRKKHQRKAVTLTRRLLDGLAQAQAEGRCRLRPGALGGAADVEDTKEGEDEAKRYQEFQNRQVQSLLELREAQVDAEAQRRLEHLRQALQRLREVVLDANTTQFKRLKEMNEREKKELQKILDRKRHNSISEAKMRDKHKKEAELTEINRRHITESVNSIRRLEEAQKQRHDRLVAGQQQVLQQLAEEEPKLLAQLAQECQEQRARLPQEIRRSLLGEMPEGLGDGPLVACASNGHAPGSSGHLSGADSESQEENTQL

[3] = molecular target: Peroxisome proliferator-activated receptor gamma/Nuclear receptor coactivator 1 (Homo sapiens, UniProt P37231); experiment: (§1) TR-FRET dose response biochemical High Throughput Screening assay for agonists of the steroid receptor coactivator 1 (SRC-1) recruitment by the peroxisome proliferator-activated receptor gamma (PPAR gamma): non-selective agonists. [Related pubchem assays (depositor defined):AID1300, AID1808, AID504735, AID631]; assay type: protein assay
[4] = molecular target: Peroxisome proliferator-activated receptor gamma/Nuclear receptor coactivator 3 (Homo sapiens, UniProt P37231); experiment: as §1, with “3 (SRC-3)” for “1 (SRC-1)”, “assays: 1301 (Confirmation screen.), 1048 (Primary screen.)]” for “assays (depositor defined):AID1300, AID1808, AID504735, AID631]”; assay type: functional
Peroxisome proliferator-activated receptor gamma/Nuclear receptor coactivator 3, sequence (P37231 whole entry): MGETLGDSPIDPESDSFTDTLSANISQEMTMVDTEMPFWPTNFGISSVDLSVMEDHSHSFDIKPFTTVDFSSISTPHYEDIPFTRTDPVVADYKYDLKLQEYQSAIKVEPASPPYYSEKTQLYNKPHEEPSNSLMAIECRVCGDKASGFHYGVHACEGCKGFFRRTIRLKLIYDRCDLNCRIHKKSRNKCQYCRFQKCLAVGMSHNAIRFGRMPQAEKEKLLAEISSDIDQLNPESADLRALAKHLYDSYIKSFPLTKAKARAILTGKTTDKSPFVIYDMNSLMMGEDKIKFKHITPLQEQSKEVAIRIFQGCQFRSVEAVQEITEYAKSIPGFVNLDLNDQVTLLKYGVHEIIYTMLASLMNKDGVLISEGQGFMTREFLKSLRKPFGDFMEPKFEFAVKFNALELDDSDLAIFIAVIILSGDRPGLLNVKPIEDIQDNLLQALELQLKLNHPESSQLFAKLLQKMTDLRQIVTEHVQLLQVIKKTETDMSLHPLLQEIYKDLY
Peroxisome proliferator-activated receptor gamma/Nuclear receptor coactivator 3, sequence (Q9Y6Q9 whole entry, further chain): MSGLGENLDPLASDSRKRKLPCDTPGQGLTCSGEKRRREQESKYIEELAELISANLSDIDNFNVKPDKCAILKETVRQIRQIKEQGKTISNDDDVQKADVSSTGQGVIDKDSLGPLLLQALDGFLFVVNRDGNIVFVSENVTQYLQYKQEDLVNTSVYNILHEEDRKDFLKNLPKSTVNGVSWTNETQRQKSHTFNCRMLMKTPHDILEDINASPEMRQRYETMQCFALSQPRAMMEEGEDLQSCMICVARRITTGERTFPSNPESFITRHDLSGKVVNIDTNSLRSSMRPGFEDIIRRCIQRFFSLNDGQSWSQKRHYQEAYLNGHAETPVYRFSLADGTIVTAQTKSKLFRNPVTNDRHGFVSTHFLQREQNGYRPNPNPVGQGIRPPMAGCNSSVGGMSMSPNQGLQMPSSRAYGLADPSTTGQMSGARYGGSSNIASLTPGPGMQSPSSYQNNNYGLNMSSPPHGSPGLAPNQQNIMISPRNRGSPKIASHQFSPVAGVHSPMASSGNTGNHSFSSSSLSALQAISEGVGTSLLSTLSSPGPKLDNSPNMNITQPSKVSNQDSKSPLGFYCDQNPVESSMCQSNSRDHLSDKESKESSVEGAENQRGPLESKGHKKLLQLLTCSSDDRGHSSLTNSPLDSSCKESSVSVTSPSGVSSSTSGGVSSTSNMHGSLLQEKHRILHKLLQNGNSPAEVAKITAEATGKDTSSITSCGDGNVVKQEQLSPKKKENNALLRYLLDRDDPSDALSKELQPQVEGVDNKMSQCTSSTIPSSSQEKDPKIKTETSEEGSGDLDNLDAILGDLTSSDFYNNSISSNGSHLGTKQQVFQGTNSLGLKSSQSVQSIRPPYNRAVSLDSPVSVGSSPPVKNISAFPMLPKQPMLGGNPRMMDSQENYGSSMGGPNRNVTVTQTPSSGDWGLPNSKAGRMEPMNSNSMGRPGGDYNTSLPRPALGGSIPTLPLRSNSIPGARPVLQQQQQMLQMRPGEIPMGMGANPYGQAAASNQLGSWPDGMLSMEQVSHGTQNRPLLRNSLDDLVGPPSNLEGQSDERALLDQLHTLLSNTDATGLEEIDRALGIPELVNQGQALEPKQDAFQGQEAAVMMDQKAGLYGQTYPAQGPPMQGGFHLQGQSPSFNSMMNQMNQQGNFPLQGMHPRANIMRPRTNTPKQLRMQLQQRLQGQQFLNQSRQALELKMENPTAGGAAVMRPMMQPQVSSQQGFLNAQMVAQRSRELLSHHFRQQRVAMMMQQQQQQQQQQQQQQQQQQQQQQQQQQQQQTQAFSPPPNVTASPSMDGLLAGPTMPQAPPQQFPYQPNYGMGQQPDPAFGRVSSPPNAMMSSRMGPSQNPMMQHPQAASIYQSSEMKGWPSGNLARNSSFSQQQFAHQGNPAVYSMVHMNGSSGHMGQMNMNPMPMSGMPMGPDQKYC

[5] = molecular target: Peroxisome proliferator-activated receptor gamma/Nuclear receptor coactivator 2 (Homo sapiens, UniProt P37231); experiment: TR-FRET dose response biochemical High Throughput Screening assay for agonists of the steroid receptor coactivator 2 (SRC-2) recruitment by the peroxisome proliferator-activated receptor gamma (PPAR gamma): non-selective agonists. [Related pubchem assays: 1297, 1032 ]; assay type: functional
Peroxisome proliferator-activated receptor gamma/Nuclear receptor coactivator 2, sequence (P37231 whole entry): as the sequence (P37231 whole entry) above
Peroxisome proliferator-activated receptor gamma/Nuclear receptor coactivator 2, sequence (Q15596 whole entry, further chain): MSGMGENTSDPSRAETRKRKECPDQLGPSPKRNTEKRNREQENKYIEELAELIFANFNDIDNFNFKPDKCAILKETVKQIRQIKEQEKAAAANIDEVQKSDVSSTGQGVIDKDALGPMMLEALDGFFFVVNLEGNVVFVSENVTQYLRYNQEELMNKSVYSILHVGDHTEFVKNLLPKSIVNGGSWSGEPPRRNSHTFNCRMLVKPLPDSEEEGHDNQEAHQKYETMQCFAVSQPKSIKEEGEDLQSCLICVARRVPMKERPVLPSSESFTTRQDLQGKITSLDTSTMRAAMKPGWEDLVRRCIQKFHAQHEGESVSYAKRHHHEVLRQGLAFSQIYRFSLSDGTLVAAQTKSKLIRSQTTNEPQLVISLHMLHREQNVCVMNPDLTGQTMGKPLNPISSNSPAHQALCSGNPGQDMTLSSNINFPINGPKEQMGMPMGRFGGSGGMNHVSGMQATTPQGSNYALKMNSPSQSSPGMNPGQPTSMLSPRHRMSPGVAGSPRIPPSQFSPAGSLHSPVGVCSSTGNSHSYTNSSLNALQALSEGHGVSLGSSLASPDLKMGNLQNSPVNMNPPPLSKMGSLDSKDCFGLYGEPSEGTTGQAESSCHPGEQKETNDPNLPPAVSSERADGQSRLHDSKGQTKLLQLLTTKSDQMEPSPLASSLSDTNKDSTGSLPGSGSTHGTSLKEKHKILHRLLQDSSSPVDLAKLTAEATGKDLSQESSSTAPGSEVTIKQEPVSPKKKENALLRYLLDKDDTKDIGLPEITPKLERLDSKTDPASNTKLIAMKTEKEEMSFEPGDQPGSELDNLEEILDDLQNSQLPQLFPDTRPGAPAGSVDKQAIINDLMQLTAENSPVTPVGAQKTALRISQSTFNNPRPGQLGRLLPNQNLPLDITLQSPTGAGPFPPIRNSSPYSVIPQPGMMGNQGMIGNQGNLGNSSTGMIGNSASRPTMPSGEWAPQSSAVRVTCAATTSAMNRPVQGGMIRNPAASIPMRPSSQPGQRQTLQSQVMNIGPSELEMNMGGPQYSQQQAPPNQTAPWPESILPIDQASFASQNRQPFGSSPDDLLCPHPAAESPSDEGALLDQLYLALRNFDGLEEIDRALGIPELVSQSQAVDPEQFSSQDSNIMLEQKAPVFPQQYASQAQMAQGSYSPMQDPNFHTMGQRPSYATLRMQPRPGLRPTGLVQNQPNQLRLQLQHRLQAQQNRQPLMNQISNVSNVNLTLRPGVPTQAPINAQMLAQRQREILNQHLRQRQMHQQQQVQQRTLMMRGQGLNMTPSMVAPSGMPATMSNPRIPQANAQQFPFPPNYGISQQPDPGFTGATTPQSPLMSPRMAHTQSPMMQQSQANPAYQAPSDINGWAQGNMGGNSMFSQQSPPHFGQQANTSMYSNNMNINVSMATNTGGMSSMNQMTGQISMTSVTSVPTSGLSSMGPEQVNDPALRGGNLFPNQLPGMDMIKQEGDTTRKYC

[6] = ADAM10 inhibitors, peptide cleavage, dose response, biochemical, QFRET (AID 743254);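 further: ADAM10 enzyme with the DM2 quenched FRET peptide as substrate; EDANS fluorescence gain as the protease cuts the substrate; inhibitor potency against ADAM10 proteolytic activity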
[7] = molecular target: Disintegrin and metalloproteinase domain-containing protein 17 (Homo sapiens, UniProt P78536); experiment: ADAM17 protease inhibitors, dose response, counter-screen for ADAM10 exosite inhibitor project, biochemical, quenched FRET substrate (AID 743253)
Disintegrin and metalloproteinase domain-containing protein 17, sequence (P78536 whole entry, the tested form may be a part): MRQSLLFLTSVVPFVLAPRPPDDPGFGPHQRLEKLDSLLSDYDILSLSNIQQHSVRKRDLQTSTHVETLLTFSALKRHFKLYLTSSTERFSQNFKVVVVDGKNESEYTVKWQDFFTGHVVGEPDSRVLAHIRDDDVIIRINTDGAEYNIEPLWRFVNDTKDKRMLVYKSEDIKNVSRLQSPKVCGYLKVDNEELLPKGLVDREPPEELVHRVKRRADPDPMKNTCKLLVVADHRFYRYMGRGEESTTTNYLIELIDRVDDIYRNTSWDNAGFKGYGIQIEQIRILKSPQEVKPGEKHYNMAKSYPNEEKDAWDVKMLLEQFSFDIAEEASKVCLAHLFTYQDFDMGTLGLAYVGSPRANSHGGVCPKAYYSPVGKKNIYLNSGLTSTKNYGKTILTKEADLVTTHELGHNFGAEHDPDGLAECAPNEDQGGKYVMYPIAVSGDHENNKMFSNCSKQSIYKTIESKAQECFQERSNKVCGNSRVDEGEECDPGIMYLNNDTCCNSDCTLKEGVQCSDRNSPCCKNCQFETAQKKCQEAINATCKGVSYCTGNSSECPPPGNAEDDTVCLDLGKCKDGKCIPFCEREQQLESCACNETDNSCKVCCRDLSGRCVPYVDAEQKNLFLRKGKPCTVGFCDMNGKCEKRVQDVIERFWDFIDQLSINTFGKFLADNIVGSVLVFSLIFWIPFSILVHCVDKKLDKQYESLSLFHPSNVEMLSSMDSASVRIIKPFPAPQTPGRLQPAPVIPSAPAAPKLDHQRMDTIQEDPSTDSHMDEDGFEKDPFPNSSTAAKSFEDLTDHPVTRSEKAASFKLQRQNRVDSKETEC

[8] = molecular target: Paired box protein Pax-8 (Homo sapiens, UniProt Q06710); experiment: inhibitors of PAX8-driven TPO luciferase reporter, dose response, RMG-I cells, cherry-pick (AID 687027); assay type: functional, cell-based;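 further: luciferase reporter driven by Pax8 target thyroperoxidase promoter measured by SteadyGlo luminescence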
[9] = NIH-3T3 fibroblast cytotoxicity, dose response, cytotoxicity control, cell-based, fluorescence, Alamar Blue, secondary assay (AID 2327); assay type: functional;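 further: NIH-3T3 mouse fibroblasts cultured with fluconazole at 8 µg/mL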
[10] = inhibitors of firefly luciferase expression or activity, dose response, H4 neuroglioma cells, luminescence (AID 1990); assay type: functional, cell-based
[11] = Luminescence Cell-Based Dose Response HTS to Identify Inhibitors of 5'UTR Stem-Loop Driven Prion Protein mRNA Translation in H4 Neuroglioblastoma Cells. [Related pubchem assays: 1827 (Project Summary), 1813 (Primary HTS)]; assay type: functional
[12] = inhibitors of SNCA 5'UTR-driven reporter translation, confirmation, H4 neuroglioma cells, luminescence (AID 1988); assay type: functional, cell-based
[13] = C. albicans growth with fluconazole, confirmation, fluorescence, retest (AID 2467); assay type: functional, cell-based
[14] = molecular target: Heat shock protein HSP 90-alpha (Homo sapiens, UniProt P07900); assay type: functional, organism-based
[15] = system: INS1; experiment: beta cell apoptosis inhibitors, cytokine rescue, dose response, luminescence, retest (AID 449756); assay type: functional, cell-based; settings: Rattus norvegicus;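 further: cell death triggered by IL-1 beta plus TNF-alpha plus IFN-gamma mixture; protective hits raise ATP signal compared with cytokine alone wells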

In the case of NS(=O)(=O)c1ccc(N/N=C/c2ccc(O)cc2O)c([N+](=O)[O-])c1, the IC50 [1] is reported as > 123 µM (inactive) and the IC50 [2] is reported as > 123 µM (inactive).
For COc1ccc(NC(C)C(=O)N/N=C/c2ccccc2OCc2cccc(Br)c2)cc1 (stereo unspecified), the EC50 [3] was > 79.4 µM (inactive), the EC50 [4] was > 79.4 µM (not active) and the EC50 [5] was > 79.4 µM (not active). For the same compound, the IC50 [6] was > 69.5 µM (inactive) and the IC50 [7] was > 69.5 µM (inactive).
With C=CCC[C@@H](Cc1ccc(F)cc1)C(=O)OC[C@@H](Cc1c[nH]c2ccccc12)NC(=O)[C@H](CC=C)CC(=O)N(CCO)Cc1ccccc1 the AC50 [8] was 10.9 µM (active), the IC50 [6] was 15.4 µM (inactive) and the IC50 [7] was > 69.5 µM (inactive).
For CCN(C(=O)COC(=O)c1ccc(C=O)cc1)c1c(N)n(Cc2ccccc2)c(=O)[nH]c1=O, the IC50 [1] was > 122 µM (inactive) and the IC50 [2] was > 122 µM (inactive).
For CCOc1ccc(C(Nc2cccnc2)c2cc(Cl)c3cccnc3c2O)cc1 (stereo unspecified), the EC50 [9] was 7.98 µM (inconclusive), the EC50 [10] was 12.1 µM (active) and the EC50 [11] was 13.7 µM (active). For the same compound, the EC50 [12] was > 120 µM (not active), the EC50 [13] was 0.348 µM (active) and the AC50 [14] was 2.68 µM (active). The AC50 [15] was 3.6 µM (active), the IC50 [6] was 5.53 µM (active) and the IC50 [7] was 9.11 µM (active).

Source: ChEMBL document CHEMBL1201862, “PubChem BioAssay data set” (2004)
